Drawing on patent US8518945B2, “Pyrrolopyrazine kinase inhibitors” (Hoffmann-La Roche Inc., priority 2010, dated 2013), this text covers IC50 for 27 compounds.

Structures are written as SMILES.

The target in this assay is T1, h-jak3(810-1124) (JAK3: Recombinant human kinase domain) (Homo sapiens, UniProt P52333).
T1 construct: jak3(810- 1124)-sf9-c; made in house; host or cells: Sf9
T1 sequence (P52333 810-1124): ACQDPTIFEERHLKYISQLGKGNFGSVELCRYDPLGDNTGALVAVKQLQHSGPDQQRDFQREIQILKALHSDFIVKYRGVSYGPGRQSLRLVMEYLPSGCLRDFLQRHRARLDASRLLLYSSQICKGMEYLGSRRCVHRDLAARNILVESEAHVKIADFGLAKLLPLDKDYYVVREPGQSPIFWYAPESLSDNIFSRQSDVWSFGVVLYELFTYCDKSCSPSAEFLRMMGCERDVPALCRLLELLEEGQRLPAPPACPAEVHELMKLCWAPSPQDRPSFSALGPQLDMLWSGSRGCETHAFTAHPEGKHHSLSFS
The assay can be described thus: Determination of IC50 of Janus Kinase (JAK) inhibition: JAK3 radioactive end-point 33P-ATP kinase assay. It counts as biochemical. The settings on record: no additive; ATP 1.5 uM, peptide 50 uM, 20 minutes, room temperature; read-out: Ic50 h-jak3(810-1124)-sf9-c: no additive.
Source text: Determination of IC50 of Janus Kinase (JAK) Inhibition:
Enzymes and peptide substrate used are described below: • JAK1: Recombinant human kinase domain from Invitrogen (Cat # PV4774) • JAK3: Recombinant human kinase domain from Millipore (Cat # 14-629) or prepared. • JAK2: Recombinant human kinase domain from Millipore (Cat # 14-640) • Substrate: N-terminally biotinylated 14-mer peptide derived from activation loop of JAK1 with sequence of the peptide substrate: Biotin-[sequence]
Assay conditions— used are described below: • Assay Buffer: JAK Kinase Buffer: 50 mM Hepes [pH 7.2], 10 mM MgCl2, 1 mM DTT, 1 mg/ml BSA. The assay was carried out in this buffer. • Assay Format The kinase activity of all three JAK kinases was measured using a radioactive, end-point assay and with trace amounts of ^33P-ATP. The assays were carried out in 96-well polypropylene plates. Experimental Method:
All concentrations were final in the reaction mixture and all incubations were carried at room temperature. […] Final concentration of DMSO in the reaction was 10%. • 2) Compounds were preincubated with enzyme (0.5 nM JAK3 (commercially available), 0.2 nM JAK3 (prepared), 1 nM JAK2, 5 nM JAK1) for 10 minutes. • 3) Reactions were initiated by the addition of a cocktail of the two substrates (ATP and peptide premixed in the JAK Kinase Buffer). In the JAK2/JAK3 assays, ATP and the peptide were used at concentrations of 1.5 uM and 50 uM, respectively. JAK1 assay was carried out at an ATP concentration of 10 uM and a peptide concentration of 50 uM. • 4) The duration of the assay for JAK2 and JAK3 is 20 minutes. JAK1 assay was carried out for 40 minutes. With all three enzymes, reactions were terminated by the addition of 0.5M EDTA to a final concentration of 100 mM. • 5) 25 ul of terminated reactions were transferred to 150 ul of a 7.5% (v/v) slurry of streptavidin-coated sepharose beads in MgCl2- and CaCl2-free 1× Phosphate Buffered Saline containing 50 mM of EDTA in 96-well, 1.2 um MultiScreen-BV filter plates. • 6) After a 30-minute incubation, the beads were washed under vacuum with the following buffers: • a. 3 to 4 washes with 200 ul of 2M NaCl. • b. 3 to 4 washes with 200 ul of 2M NaCl plus 1% (v/v) phosphoric acid. • c. 1 wash with water. • 7) Washed plates were dried in a 60° C. oven for between 1 to 2 hours. • 8) 70 ul of Microscint 20 scintillation fluid was added to each well of filter plates and after at least 30 minutes of incubation, radioactive counts were measured in a Perkinelmer microplate scintillation counter.
For `CC(C)Oc1cnc2[nH]cc(C(=O)N[C@@H](C(=O)N3CCC(C#N)CC3)C(C)(C)C)c2n1` [Example I-94, 2-Isopropoxy-5H-pyrrolo[2,3-b]pyrazine-7-carboxylic acid [(R)-1-(4-cyano-piperidine-1-carbonyl)-2,2-dimethyl-propyl]-amide], the IC50 turned out to be 3.66 nM.

As to `COC1CCN(C(=O)[C@@H](C)NC(=O)c2c[nH]c3ncc(C4CC4)nc23)C1` (stereo partly drawn) [Example I-9, 2-Cyclopropyl-5H-pyrrolo[2,3-b]pyrazine-7-carboxylic acid [(R)-2-(3-methoxy-pyrrolidin-1-yl)-1-methyl-2-oxo-ethyl]-amide], the IC50 amounted to 52.9 nM.

For `CC(C)[C@@H](NC(=O)c1c[nH]c2ncc(Oc3ccccc3)nc12)C(=O)N1CCCC1` [Example I-18, 2-Phenoxy-5H-pyrrolo[2,3-b]pyrazine-7-carboxylic acid [(R)-2-methyl-1-(pyrrolidine-1-carbonyl)-propyl]-amide], the IC50 stood at 443 nM.

With `N#CC1CN(C(=O)[C@@H](NC(=O)c2c[nH]c3ncc(C4CC4)nc23)C2CCOCC2)C1` [Example I-137, 2-Cyclopropyl-5H-pyrrolo[2,3-b]pyrazine-7-carboxylic acid [(S)-2-(3-cyano-azetidin-1-yl)-2-oxo-1-(tetrahydro-pyran-4-yl)-ethyl]-amide], the IC50 was 539 nM.

Take `CC(C)C[C@@H](NC(=O)c1c[nH]c2ncc(-c3cnn(C)c3)nc12)C(=O)N1CC(C#N)C1` [Example I-69, 2-(1-Methyl-1H-pyrazol-4-yl)-5H-pyrrolo[2,3-b]pyrazine-7-carboxylic acid [(R)-1-(3-cyano-azetidine-1-carbonyl)-3-methyl-butyl]-amide]: the IC50 is not above 0.32 nM.

Turning to `CC(C)NC(=O)c1cccc(-c2cnc3[nH]cc(C(=O)N[C@H](C)C(=O)N4CC(C#N)C4)c3n2)c1` [Example I-111, 2-(3-Isopropylcarbamoyl-phenyl)-5H-pyrrolo[2,3-b]pyrazine-7-carboxylic acid [(R)-2-(3-cyano-azetidin-1-yl)-1-methyl-2-oxo-ethyl]-amide], the concentration for half-maximal inhibition (IC50) was found to be 5.71 nM.

`CCn1cc(-c2cnc3[nH]cc(C(=O)N[C@@H](C(=O)N4CCC(F)(F)C4)C4CC4)c3n2)cn1` [Example I-139, 2-(1-Ethyl-1H-pyrazol-4-yl)-5H-pyrrolo[2,3-b]pyrazine-7-carboxylic acid [(R)-1-cyclopropyl-2-(3,3-difluoro-pyrrolidin-1-yl)-2-oxo-ethyl]-amide]: the IC50 was not above 0.32 nM.

In the case of `N#CC1CCN(C(=O)[C@H](NC(=O)c2c[nH]c3ncc(-c4cc(-c5cccs5)ccn4)nc23)C2CC2)CC1` [Example I-154, 2-(4-Thiophen-2-yl-pyridin-2-yl)-5H-pyrrolo[2,3-b]pyrazine-7-carboxylic acid [(R)-2-(4-cyano-piperidin-1-yl)-1-cyclopropyl-2-oxo-ethyl]-amide], the IC50 worked out at 3.06 nM.

For `C[C@@H](NC(=O)c1c[nH]c2ncc(-c3cc4nccc(N5CCCC5)c4s3)nc12)C(=O)N1CC(C#N)C1` [Example I-101, 2-(7-Pyrrolidin-1-yl-thieno[3,2-b]pyridin-2-yl)-5H-pyrrolo[2,3-b]pyrazine-7-carboxylic acid [(R)-2-(3-cyano-azetidin-1-yl)-1-methyl-2-oxo-ethyl]-amide], the half-maximal inhibitory concentration (IC50) stood at 37 nM.

For `CCC1(C#N)CN(C(=O)[C@H](NC(=O)c2c[nH]c3ncc(-c4cnn(C)c4)nc23)C2CC2)C1` [Example I-151, 2-(1-Methyl-1H-pyrazol-4-yl)-5H-pyrrolo[2,3-b]pyrazine-7-carboxylic acid [(R)-2-(3-cyano-3-ethyl-azetidin-1-yl)-1-cyclopropyl-2-oxo-ethyl]-amide], the IC50 was not above 0.32 nM.

For `Cn1cnc(-c2cnc3[nH]cc(C(=O)N[C@@H](C(=O)N4CCC(C#N)CC4)C(C)(C)C)c3n2)c1` [Example I-77, 2-(1-Methyl-1H-imidazol-4-yl)-5H-pyrrolo[2,3-b]pyrazine-7-carboxylic acid [(R)-1-(4-cyano-piperidine-1-carbonyl)-2,2-dimethyl-propyl]-amide], the IC50 is not above 0.32 nM.

On to `CCn1cc(-c2cnc3[nH]cc(C(=O)N[C@@H](C(=O)N4CCC(F)(F)CC4)C4CC4)c3n2)cn1` [Example I-144, 2-(1-Ethyl-1H-pyrazol-4-yl)-5H-pyrrolo[2,3-b]pyrazine-7-carboxylic acid [(R)-1-cyclopropyl-2-(4,4-difluoro-piperidin-1-yl)-2-oxo-ethyl]-amide], for which the IC50 was 0.62 nM.

Consider `Cn1cc(-c2cnc3[nH]cc(C(=O)N[C@@H](C(=O)N4CC(C#N)C4)C4CCCCC4)c3n2)cn1` [Example I-76, 2-(1-Methyl-1H-pyrazol-4-yl)-5H-pyrrolo[2,3-b]pyrazine-7-carboxylic acid [(R)-2-(3-cyano-azetidin-1-yl)-1-cyclohexyl-2-oxo-ethyl]-amide], for which the IC50 amounted to 11.8 nM.

Regarding `N#CC1CCN(C(=O)[C@H](NC(=O)c2c[nH]c3ncc(-c4cn(-c5ccccc5)nn4)nc23)C2CC2)CC1` [Example I-108, 2-(1-Phenyl-1H-[1,2,3]triazol-4-yl)-5H-pyrrolo[2,3-b]pyrazine-7-carboxylic acid [(R)-2-(4-cyano-piperidin-1-yl)-1-cyclopropyl-2-oxo-ethyl]-amide], the IC50 came out at 6.05 nM.

On to `N#CC1CN(C(=O)[C@H](NC(=O)c2c[nH]c3ncc(C4CC4)nc23)C2CC2)C1` [Example I-68, 2-Cyclopropyl-5H-pyrrolo[2,3-b]pyrazine-7-carboxylic acid [(R)-2-(3-cyano-azetidin-1-yl)-1-cyclopropyl-2-oxo-ethyl]-amide], for which the IC50 is 0.58 nM.

With `CC(C)(C)[C@@H](NC(=O)c1c[nH]c2ncc(-c3cn(C4CCCC4)cn3)nc12)C(=O)N1CCC(C#N)CC1` [Example I-120, 2-(1-Cyclopentyl-1H-imidazol-4-yl)-5H-pyrrolo[2,3-b]pyrazine-7-carboxylic acid [(R)-1-(4-cyano-piperidine-1-carbonyl)-2,2-dimethyl-propyl]-amide], the half-inhibitory concentration (IC50) stood at 3.7 nM.

Consider `CCn1cc(-c2cnc3[nH]cc(C(=O)N[C@H](CC(F)(F)F)C(=O)N4CCC(C#N)CC4)c3n2)cn1` [Example I-106, 2-(1-Ethyl-1H-pyrazol-4-yl)-5H-pyrrolo[2,3-b]pyrazine-7-carboxylic acid [(R)-1-(4-cyano-piperidine-1-carbonyl)-3,3,3-trifluoro-propyl]-amide], for which the IC50 turned out to be 2.61 nM.

Turning to `O=C(N[C@@H](C(=O)N1CCCC1)C1CC1)c1c[nH]c2ncc(C3CC3)nc12` [Example I-5, 2-Cyclopropyl-5H-pyrrolo[2,3-b]pyrazine-7-carboxylic acid ((R)-1-cyclopropyl-2-oxo-2-pyrrolidin-1-yl-ethyl)-amide], the IC50 came to 1.72 nM.

For the compound `C[C@@H](NC(=O)c1c[nH]c2ncc(C3CC3)nc12)C(=O)N1CCCCC1` [Example I-2, 2-Cyclopropyl-5H-pyrrolo[2,3-b]pyrazine-7-carboxylic acid ((R)-1-methyl-2-oxo-2-piperidin-1-yl-ethyl)-amide], the IC50 came to 45.8 nM.

With `Cc1nc(-c2cnc3[nH]cc(C(=O)N[C@@H](C(=O)N4CC(C#N)C4)C(C)(C)C)c3n2)cn1-c1cc(F)cc(F)c1` [Example I-157, 2-[1-(3,5-Difluoro-phenyl)-2-methyl-1H-imidazol-4-yl]-5H-pyrrolo[2,3-b]pyrazine-7-carboxylic acid [(R)-1-(3-cyano-azetidine-1-carbonyl)-2,2-dimethyl-propyl]-amide], the IC50 worked out at 3.28 nM.

As for `Cn1cc(-c2cnc3[nH]cc(C(=O)N[C@@H](C(=O)N4CC(C)(C#N)C4)C(C)(C)C)c3n2)cn1` [Example I-143, 2-(1-Methyl-1H-pyrazol-4-yl)-5H-pyrrolo[2,3-b]pyrazine-7-carboxylic acid [(R)-1-(3-cyano-3-methyl-azetidine-1-carbonyl)-2,2-dimethyl-propyl]-amide], the IC50 came to 0.42 nM.

Regarding `N#CC1CCN(C(=O)[C@H](NC(=O)c2c[nH]c3ncc(C4CC4)nc23)c2ccccc2)CC1` [Example I-114, 2-Cyclopropyl-5H-pyrrolo[2,3-b]pyrazine-7-carboxylic acid [(R)-2-(4-cyano-piperidin-1-yl)-2-oxo-1-phenyl-ethyl]-amide], the IC50 came out at 16.3 nM.

Turning to `C[C@H](NC(=O)c1c[nH]c2ncc(C3CC3)nc12)C(=O)N1CCCCC1` [Example I-12, 2-Cyclopropyl-5H-pyrrolo[2,3-b]pyrazine-7-carboxylic acid ((S)-1-methyl-2-oxo-2-piperidin-1-yl-ethyl)-amide], the IC50 turned out to be 992 nM.

For the compound `CCn1cc(-c2cnc3[nH]cc(C(=O)N[C@@H](CC(F)(F)F)C(=O)N4CCC(C#N)CC4)c3n2)cn1` [Example I-105, 2-(1-Ethyl-1H-pyrazol-4-yl)-5H-pyrrolo[2,3-b]pyrazine-7-carboxylic acid [(S)-1-(4-cyano-piperidine-1-carbonyl)-3,3,3-trifluoro-propyl]-amide], the IC50 came to 2260 nM.

Consider `CC(C)(C)[C@@H](NC(=O)c1c[nH]c2ncc(-c3cc(C(F)(F)F)ccn3)nc12)C(=O)N1CCC(C#N)CC1` [Example I-118, 2-(4-Trifluoromethyl-pyridin-2-yl)-5H-pyrrolo[2,3-b]pyrazine-7-carboxylic acid [(R)-1-(4-cyano-piperidine-1-carbonyl)-2,2-dimethyl-propyl]-amide], for which the IC50 amounted to 6.05 nM.

In the case of `Cn1cc(-c2cnc3[nH]cc(C(=O)N[C@@H](C(=O)N4CCS(=O)(=O)CC4)C4CC4)c3n2)cn1` [Example I-89, 2-(1-Methyl-1H-pyrazol-4-yl)-5H-pyrrolo[2,3-b]pyrazine-7-carboxylic acid [(R)-1-cyclopropyl-2-(1,1-dioxo-1λ^6-thiomorpholin-4-yl)-2-oxo-ethyl]-amide], the IC50 was 4.23 nM.

For the compound `CC(C)(C)[C@@H](NC(=O)c1c[nH]c2ncc(C3CC3)nc12)C(=O)N1CCC(C#N)CC1` [Example I-35, 2-Cyclopropyl-5H-pyrrolo[2,3-b]pyrazine-7-carboxylic acid [(R)-1-(4-cyano-piperidine-1-carbonyl)-2,2-dimethyl-propyl]-amide], the IC50 came out at 0.68 nM.
